{"source": "patent US7476655B2", "about": "“Materials and methods for regulating blood flow” (University of Florida Research Foundation, Inc., priority 2005, dated 2009)", "key": {"cGMP-specific PDE": {"system": "cGMP-specific PDE", "test": "cGMP-specific PDE activity in PAEC (hydrolysis of 3H-cGMP in supernatant)", "type": "cell-based", "settings": "10 μM, 1 hr at 37° C., compared to control (FIG. 3)", "experimental": "The synthetic peptides were evaluated to asses any association with modulation of cGMP-specific PDE activity in PAEC.\nCell monolayers were incubated in RPMI 1640 medium with or without (control) the presence of 10 μM each of P3, P4, P6 or Zaprinast for 1 hr at 37° C. After incubation, cells were washed, homogenized, and supernatant were collected by centrifugation at 15,000×g for 15 min at 4° C. PDE activity in the supernatant were measured by monitoring hydrolysis of 3H-cGMP as previously described (16)."}, "hypoxic mice lungs": {"system": "hypoxic mice lungs", "test": "vasodilator response in excised hypoxic mouse lungs", "design": "species or system C57BL/6J mice", "settings": "15 μM, with or without L-NAME 100 μM (FIG. 4)", "experimental": "Specific pathogen-free female C57BL/6J mice (30-35 g body weight) were anesthetized with pentobarbital (60 mg/kg, ip), and the lungs were excised from the thorax, ventilated with air (control) or with 0% oxygen for 1 hour at 60 breaths/min with a SAR-830 series small animal ventilator at a tidal volume of 0.6-0.8 ml/100 g body weight. After development of hypoxic vasoconstriction, vasodilator response was monitored by addition of 15 μM each of P3, P4, P6 or zaprinast with or without the presence of nitric oxide synthase inhibitor (L-NAME, 100 μM). The vasodilatory response was continuously monitored as previously described (Hu et al. (2004) Am. J. Physiol. Lung Cell Mol. Physiol. 286:[…]-[…])."}, "eNOS": {"system": "eNOS", "test": "catalytic activity of eNOS in cultured pulmonary artery endothelial cells ([3H]-citrulline formation from [3H]-L-arginine)", "type": "cell-based", "settings": "PAEC monolayers, varying concentrations, 37° C., 1 hr, compared to control (FIG. 2)", "experimental": "The effects of the synthetic peptides (P3, P4, and P6) of the subject invention on the catalytic activity of eNOS were examined using a cultured pulmonary artery endothelial cell (PAEC) model.\nPAEC monolayers were incubated in RPMI 1640 medium with or without (control) the presence of varying concentrations of P3, P4, or P6 at 37° C. for 1 hr. After incubation, the catalytic activity of eNOS was determined as previously described by monitoring formation of [3H]-citrulline from [3H]-L-arginine (Chen, S., J. M. Patel and E. R. Block ER (2000) “Angiotensin IV-mediated pulmonary artery vasorelaxation is due to endothelial intracellular calcium release” Am. J. Physiol. Lung Cell Mol. Physiol. 279:L849-L856; and Patel, J. M., Y. D. Li, J. L. Zhang et al. (1999) “Increased expression of calreticulin is linked to Ang-IV-mediated activation of lung endothelial NOS” Am. J. Physiol Lung Cell Mol. Physiol. 277:L794-L801)."}, "hypoxic lungs [1]": {"system": "hypoxic lungs", "test": "in situ lung perfusion, pulmonary arterial pressure, rat model of hypoxic pulmonary hypertension", "type": "in vivo, Sprague Dawley rats", "settings": "for pulmonary arterial pressure (PAP): infusion of 20 μM (FIG. 6)", "experimental": "(§1) Specific pathogen-free Sprague Dawley rats (200-250 g body weight) were anesthetized with pentobarbital (60 mg/kg, ip). After confirmation of deep anesthesia, the trachea was cannulated with an 18-G blunt-tipped catheter and ventilated (SAR-830/p small animal ventilator, CWE, Ardmoore, Pa.) at a tidal volume of 2.5 ml/min with warm humidified 21% O2/5% CO2/74% N2 at 60 breaths/min with peak inspiratory and expiratory pressures of 9 cm and 3 cm H2O, respectively. A thoracotomy was performed and 100 units heparin injected into the right ventricle (RV). PE-90 polyethylene tubing connected to a Cook Double Lumen Central Venous Catheter (Cook Critical Care, Bloomington, Ind.) was placed in the left atrium through the left vetricle and tied in place. After placement of another PE-90 polyethylene tube connected with a double lumen catheter in the main pulmonary artery (PA), the lung were ventilated with 21% O2/5% CO2/74% N2 (normoxic) at constant end-expiratory pressure of 20 cm H2O and perfused in situ in the open chest with RPMI 1640 without pH indicator containing 4% Ficoll at a constant flow of 2 ml/min. After 30 min, the ventilation mixture was changed to 2% O2/5% CO2/93% N2 (hypoxic) for 30 min and change in PA pressure was continuously recorded using PO-NE-MAH-P3P Lung Perfusion System software (Gould Instrument System) and the perfusate samples were collected to determine level of NO release as previously reported (Hu et al. Am. J. Physiol. Lung Cell Mol. Physiol. 286: L1066-L1074, 2004). The ventilation gas (hypoxic) was return to normoxic gas, and the lungs were perfused with P3 (20 and 40 μM) in RPMI 1640 or RMPI 1640 for 10 min, after which the hypoxic challenge with 2% O2 was repeated, and the PA pressure response was recorded."}, "NO release": {"system": "NO release", "test": "NO release in perfusates of in situ perfused rat lungs", "type": "in vivo, Sprague Dawley rats", "experimental": "as §1, with “After placement of another PE-90 polyethylene tube connected with a double lumen catheter in the main pulmonary artery (PA), the lung were ventilated with 21% O2/5% CO2/74% N2 (normoxic) at constant end-expiratory pressure of 20 cm H2O and perfused in situ in the open chest with RPMI 1640 without pH indicator containing 4% Ficoll at a constant flow of 2 ml/min.” left out"}, "hypoxic lungs [2]": {"system": "hypoxic lungs", "test": "in vivo vasodilation effect in rats exposed to hypoxia (10% inspired O2) for 2 to 6 weeks", "design": "species or system Sprague Dawley rats", "settings": "10 mg/kg or 20 mg/kg ip once every day", "experimental": "Specific pathogen-free Sprague Dawley rats (200-250 g body weight) were exposed to hypoxia (10% inspired O2) in a Coy Laboratory hypoxia chamber equipped with auto purge, airlock, and automated live animal filtration and dehumidification systems for 2 to 6 weeks. Control (normoxia) animals were maintained in similar humidity and temperature environment. Hypoxia exposure was 24 hr/day, except when the chamber was open twice a week for 10-15 min each to clean cages and replenish food and water. All rats were exposed to 12:12-hr light/dark cycle and allowed free access to standard rat food and water. Some rats were administered P3 (+P3) in saline (10 mg/kg or 20 mg/kg, ip) or saline alone (−P3) once every day starting 24 hr prior to initiation of exposure to hypoxia. After 2, 3, and 6 weeks exposure animals were use to measure various parameters including changes in pulmonary artery pressure, lung weight/body weight (LW/BW) ratio, and right vertical/heart weight (RV/HW) ratio."}}, "data": [{"compound": "CCCOc1ccccc1-c1nc2nn[nH]c2c(=O)[nH]1", "note": "[Zaprinast, reference compound]", "values": [{"measurement": "cGMP-specific catalytic activity of PDE", "setting": "cGMP-specific PDE", "value": "loss PDE activity"}, {"measurement": "vasorelaxation of hypoxic mice lungs", "setting": "hypoxic mice lungs", "value": "vasorelaxtion"}]}, {"compound": "KKRFNSISCSSWRRKRKKR (Peptide (P4) used according to the subject invention.)", "values": [{"measurement": "cGMP-specific catalytic activity of PDE", "setting": "cGMP-specific PDE", "value": "significantly reduced"}, {"measurement": "catalytic activity of eNOS", "setting": "eNOS", "value": "significantly enhanced in a dose-dependent manner"}]}, {"compound": "KRFNSISCSSWRRKR (Peptide (P3) used according to the subject invention.)", "values": [{"measurement": "magnitude of reduction of PAP in hypoxic lung versus normoxic lungs", "setting": "hypoxic lungs [1]; hypoxic compared with normoxic lungs", "value": "much greater"}, {"measurement": "pulmonary arterial pressure (PAP)", "setting": "hypoxic lungs [1]; hypoxic lungs", "value": "significantly attenuated"}, {"measurement": "attenuation of PAP at 40 μM relative to 20 μM", "setting": "hypoxic lungs [1]; normoxic and hypoxic lungs, 40 μM", "value": "comparable"}, {"measurement": "pulmonary arterial pressure (PAP)", "setting": "hypoxic lungs [1]; normoxic lungs", "value": "significantly attenuated"}, {"measurement": "cGMP-specific catalytic activity of PDE", "setting": "cGMP-specific PDE", "value": "significantly reduced"}, {"measurement": "NO release in perfusates", "setting": "NO release; hypoxic lungs (FIG. 7)", "value": "increases"}, {"measurement": "NO release in perfusates", "setting": "NO release; normoxic lungs (FIG. 7)", "value": "increases"}, {"measurement": "hypoxia-induced PAP pressure", "setting": "hypoxic lungs [2]; hypoxia (FIG. 11)", "value": "attenuated"}, {"measurement": "hypoxia-induced RV/HW ratio", "setting": "hypoxic lungs [2]; hypoxia (FIG. 12)", "value": "attenuated"}, {"measurement": "catalytic activity of eNOS", "setting": "eNOS", "value": "significantly enhanced in a dose-dependent manner"}]}, {"compound": "WRRKRKES (Peptide (P6) used according to the subject invention.)", "values": [{"measurement": "cGMP-specific catalytic activity of PDE", "setting": "cGMP-specific PDE", "value": "significantly reduced"}, {"measurement": "catalytic activity of eNOS", "setting": "eNOS", "value": "significantly enhanced in a dose-dependent manner"}]}]}
